# Test results published in patent CN117003659A, “一种可离子化脂质或其药学上可接受的盐、组合物和应用” (priority 2023, dated 2023).
# What was measured:
# [1] = tested on: female BALB/C mice (雌性BALB/C小鼠); assay: In vivo expression of Fluc mRNA-LNP, live fluorescence imaging (Example 7); design: species or system mouse; settings: for fluorescence intensity of expressed protein compared with U-102, U-104, U-106, U-108, U-110, U-112 (in words): mRNA-LNP, versus U-102, U-104, U-106, U-108, U-110, U-112; for fluorescence intensity (total luminous flux) / course of fluorescence intensity at 24 h (in words): mice, 20 μg Fluc mRNA, intramuscular; for fluorescence intensity (total luminous flux): 6 h, order of magnitude
# [2] = tested on: HEK293T cells (HEK293T细胞); format: cell-based; settings: RBD mRNA-LNP, mRNA 1 μg, 24 h, cell supernatant
# [3] = tested on: human umbilical vein endothelial cells (人脐静脉内皮细胞, HUVEC); assay: In vitro expression of VEGFa mRNA-LNP, ELISA of VEGFa protein (Example 6); format: cell-based; settings: mRNA 1 μg, 24 h
SMILES,"fluorescence intensity of expressed protein compared with U-102, U-104, U-106, U-108, U-110, U-112 (in words) [1]",RBD protein concentration [2] [ng/mL],VEGFa protein concentration [3] [ng/mL],fluorescence intensity (total luminous flux) [1],course of fluorescence intensity at 24 h (in words) [1]
"CCCCCCCCCCCCOC(=O)CCCCCN(CCCCCC(=O)OC(CCCCCCC)CCCCCCC)CCCN(CCO)CCO [U-111, O-1-庚基辛基-O’-十二烷基-6,6'-((3-(双(2-羟乙基)氨基)丙基)氮杂二烷基)二己酸酯]",更高一些,44.3,41.7,–,–
"CCCCCCCCCCCCOC(=O)CCCCCCN(CCCCCCC(=O)OC(CCCCCCC)CCCCCCC)CCN(CCO)CCO [U-112, O-1-庚基辛基-O’-十二烷基-7,7'-((2-(双(2-羟乙基)氨基)乙基)氮杂二烷基)二庚酸酯]",–,42.8,36.1,–,–
"CCCCCCCCC(CCCCCC)COC(=O)CCCCCCN(CCCCCCC(=O)OCC(CCCCCC)CCCCCCCC)CCN(CCO)CCO (stereo not shown) [U-102, 双(2-己基癸基)-7,7'-((2-(双(2-羟乙基)氨基)乙基)氮杂二烷基)二庚酸酯]",–,49.3,48.7,–,–
"CCCCCCCCC(CCCCCC)COC(=O)CCCCCN(CCCCCC(=O)OCC(CCCCCC)CCCCCCCC)CCCN(CCO)CCO (stereo not shown) [U-101, 双(2-己基癸基)-6,6'-((3-(双(2-羟乙基)氨基)丙基)氮杂二烷基)二己酸酯]",更高一些,50.6,52.8,–,–
"CCCCCCCCCCCCOC(=O)CCCCCN(CCCCCC(=O)OCC(CCCCCC)CCCCCCCC)CCCN(CCO)CCO (stereo not shown) [U-103, O-2-己基癸基-O’-十二烷基-6,6'-((3-(双(2-羟乙基)氨基)丙基)氮杂二烷基)二己酸酯]",更高一些,49.6,49.6,–,–
"CCCCCCCCC(CCCCCC)COC(=O)CCCCN(CCCCC(=O)OCC(CCCCCC)CCCCCCCC)CCCN(CCO)CCO (stereo not shown) [UR-304, 双(2-己基癸基)-5,5'-((3-(双(2-羟乙基)氨基)丙基)氮杂二烷基)二戊酸酯]",–,5.4,4.9,–,–
"CCCCCCCCCCCOC(=O)CCCCCN(CCO)CCCCCCCC(=O)OC(CCCCCCCC)CCCCCCCC [SM-102, 8-[(2-羟乙基)[6-氧代-6-(十一烷基氧基)己基]氨基]辛酸1-辛基壬基酯, reference compound]",–,10.2,11.3,~10^7 p/s,开始减弱
"CCCCCCCCC(CCCCCCCC)OC(=O)CCCCCN(CCCCCC(=O)OC(CCCCCCCC)CCCCCCCC)CCCN(CCO)CCO [U-105, 双(1-辛基壬基)-6,6'-((3-(双(2-羟乙基)氨基)丙基)氮杂二烷基)二己酸酯]",更高一些,48.4,48.3,–,–
"CCCCCCCCC(CCCCCC)COC(=O)CCCCCN(CCCCCC(=O)OCC(CCCCCC)CCCCCCCC)CCN(CCO)CCO (stereo not shown) [UR-301, 双(2-己基癸基)-6,6'-((2-(双(2-羟乙基)氨基)乙基)氮杂二烷基)二己酸酯]",–,6.8,4.8,–,–
"CCCCCCCCC(CCCCCC)C(=O)OCCCCCCN(CCCCO)CCCCCCOC(=O)C(CCCCCC)CCCCCCCC (stereo not shown) [ALC-0315, ((4-羟基丁基)氮杂二基)双(己烷-6,1-二基)双(2-己基癸酸酯), reference compound]",–,8.5,7.9,~10^7 p/s,开始减弱
"CCCCCCCCC(CCCCCC)COC(=O)CCCCCCCN(CCCCCCCC(=O)OCC(CCCCCC)CCCCCCCC)CCN(CCO)CCO (stereo not shown) [UR-303, 双(2-己基癸基)-8,8'-((2-(双(2-羟乙基)氨基)乙基)氮杂二烷基)二辛酸酯]",–,6.4,6.2,–,–
"CCCCCCCC(CCCCCCC)OC(=O)CCCCCN(CCCCCC(=O)OC(CCCCCCC)CCCCCCC)CCCN(CCO)CCO [U-109, 双(1-庚基辛基)-6,6'-((3-(双(2-羟乙基)氨基)丙基)氮杂二烷基)二己酸酯]",更高一些,43.2,39.2,–,–
"CCCCCCCCCCCCOC(=O)CCCCCN(CCCCCC(=O)OC(CCCCCCCC)CCCCCCCC)CCCN(CCO)CCO [U-107, O-1-辛基壬基-O’-十二烷基-6,6'-((3-(双(2-羟乙基)氨基)丙基)氮杂二烷基)二己酸酯]",更高一些,47.6,47.7,–,–
"CCCCCCCCCCCCOC(=O)CCCCCCN(CCCCCCC(=O)OC(CCCCCCCC)CCCCCCCC)CCN(CCO)CCO [U-108, O-1-辛基壬基-O’-十二烷基-7,7'-((2-(双(2-羟乙基)氨基)乙基)氮杂二烷基)二庚酸酯]",–,45.7,45.3,–,–
"CCCCCCCC(CCCCCCC)OC(=O)CCCCCCN(CCCCCCC(=O)OC(CCCCCCC)CCCCCCC)CCN(CCO)CCO [U-110, 双(1-庚基辛基)-7,7'-((2-(双(2-羟乙基)氨基)乙基)氮杂二烷基)二庚酸酯]",–,41.6,36.8,–,–
"CCCCCCCCCCCCOC(=O)CCCCCCN(CCCCCCC(=O)OCC(CCCCCC)CCCCCCCC)CCN(CCO)CCO (stereo not shown) [U-104, O-2-己基癸基-O’-十二烷基-6,6'-((2-(双(2-羟乙基)氨基)乙基)氮杂二烷基)二庚酸酯]",–,48.7,47.9,–,–
"CCCCCCCCC(CCCCCC)COC(=O)CCCCCCN(CCCCCCC(=O)OCC(CCCCCC)CCCCCCCC)CCCN(CCO)CCO (stereo not shown) [UR-302, 双(2-己基癸基)-7,7'-((3-(双(2-羟乙基)氨基)丙基)氮杂二烷基)二庚酸酯]",–,4.5,3.7,–,–
"CCCCCCCCC(CCCCCCCC)OC(=O)CCCCCCN(CCCCCCC(=O)OC(CCCCCCCC)CCCCCCCC)CCN(CCO)CCO [U-106, 双(1-辛基壬基)-7,7'-((2-(双(2-羟乙基)氨基)乙基)氮杂二烷基)二庚酸酯]",–,47.8,45.5,–,–
